Measured values from US20260083704A1, “LXR MODULATORS WITH BICYCLIC CORE MOIETY FOR TREATING DYSLIPIDEMIAS” (OrsoBio, Inc., priority 2022, published 2026).

Key:
[1] = test system: human primary Upcyte hepatocytes; experiment: Lipid accumulation in human primary Upcyte hepatocytes (Bodipy staining); type: cell-based; details: Hepatocyte, 120 h, glucose 25 mM and palmitate, 5 days
Protocol: Inhibition of LXR activity in hepatocytes is hypothesized to reduce intracellular TG accumulation via inhibition of DNL. The effects of Compound 21/3 on lipid accumulation in human primary Upcyte® hepatocytes were evaluated. Briefly, human primary Upcyte hepatocytes were cultivated in media containing high concentrations of glucose (25 mM) and palmitate ([…]) for 5 days in the presence or absence of Compound 21/3, and intracellular lipids were measured by Bodipy™ staining. […] Data are shown as mean±SD. n=2 wells per treatment; N=8 experiments.

LXRβ = LXRβ (Homo sapiens, UniProt P55055); experiment: LXR Gal4 reporter transient transfection assay (mammalian two-hybrid, HEK293), LXRβ; type: cell-based; details: HEK293, NCOR recruitment, mean ± SD; read-out: HEK293 LXRβ/NCOR recruitment (M2H) EC50
Chain of LXRβ (P55055 whole entry, the tested form may be a part): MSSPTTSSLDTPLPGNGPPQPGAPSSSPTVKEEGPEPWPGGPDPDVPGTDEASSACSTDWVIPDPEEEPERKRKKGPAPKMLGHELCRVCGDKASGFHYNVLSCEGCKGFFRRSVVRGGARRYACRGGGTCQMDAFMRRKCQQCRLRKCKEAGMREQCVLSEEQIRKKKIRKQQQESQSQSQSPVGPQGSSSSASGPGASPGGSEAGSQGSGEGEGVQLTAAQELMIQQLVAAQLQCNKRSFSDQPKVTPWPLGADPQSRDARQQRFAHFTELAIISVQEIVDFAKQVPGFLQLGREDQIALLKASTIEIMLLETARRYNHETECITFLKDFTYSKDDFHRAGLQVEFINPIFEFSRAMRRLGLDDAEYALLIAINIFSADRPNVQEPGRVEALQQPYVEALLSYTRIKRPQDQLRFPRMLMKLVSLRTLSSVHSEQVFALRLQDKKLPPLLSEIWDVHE
Chain of LXRβ (O75376 1906-2312 partner): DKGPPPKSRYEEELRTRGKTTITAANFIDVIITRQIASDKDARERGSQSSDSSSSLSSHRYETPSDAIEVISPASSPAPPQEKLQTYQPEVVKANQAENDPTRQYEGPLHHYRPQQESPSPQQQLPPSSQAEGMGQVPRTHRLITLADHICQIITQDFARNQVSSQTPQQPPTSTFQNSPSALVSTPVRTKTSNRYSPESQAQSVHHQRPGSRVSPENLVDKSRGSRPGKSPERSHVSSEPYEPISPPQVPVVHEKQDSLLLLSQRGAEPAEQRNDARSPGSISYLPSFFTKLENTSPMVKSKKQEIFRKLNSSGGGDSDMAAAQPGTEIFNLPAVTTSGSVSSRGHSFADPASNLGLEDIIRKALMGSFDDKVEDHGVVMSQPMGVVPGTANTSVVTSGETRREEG
Method in brief: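 HEK293 cells transiently co-transfected with full-length or LBD LXRα/LXRβ fused to NFkB activation domain, GAL4-DBD-fused SRC1 or NCoR cofactor domain, GAL4-responsive firefly luciferase reporter and Renilla control. Compound added 4 h post-transfection (≤0.2% DMSO), incubated 16 h; firefly and Renilla luminescence read sequentially.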

[2] = Plasma and liver exposures in mice dosed 1 mg/kg by oral gavage; type: in vivo; details: 1 mg/kg oral gavage
Protocol: Data are shown as mean±SD. N=3-8 wells per treatment.
The efficacy of Compound 21/3 and Compound pre-6/3 were evaluated in diet-induced obese (DIO) mouse and rat models.

HFD-fed ZDF rats = experiment: HFD-fed Zucker diabetic fatty (ZDF) rat model; type: in vivo
From the text: (§1) Data are shown as mean±SD. N=5-8 animals per group. *p≤0.05, **p≤0.01, ***p≤0.001, ****p≤0.0001 vs. vehicle, unless otherwise indicated; ^#p≤0.05 pioglitazone vs. vehicle Kruskal-Wallis (non-parametric One-Way ANOVA) test with Dunn's multiple comparisons test (FIG. 4A, FIG. 4B, FIG. 4D), repeated measures two-way ANOVA with Dunnett's multiple comparisons test (FIG. 4C), two-way ANOVA with Sidak's multiple comparisons test (FIG. 4E), Mann-Whitney test (FIG. 4F-G).
Data are shown as mean±SD. N=5-8 animals per group. *p≤0.05, **p≤0.01, ***p≤0.001, ****p≤0.0001 vs. vehicle, unless otherwise indicated; ^#p≤0.05 pioglitazone vs. vehicle repeated measures two-way ANOVA with Dunnett's multiple comparisons test (FIG. 5A, FIG. 5C, FIG. 5D), Kruskal-Wallis (non-parametric one-way ANOVA) test with Dunn's multiple comparisons test (FIG. 5B, FIG. 5E).
The efficacy of Compound 21/3 was evaluated in three dysmetabolic rodent models including DIO mice, HFD-fed ZDF rats, and HFD-fed SD rats (FIG. 4 and FIG. 5). Briefly, DIO mice were fed a HFD (60% kcal from fat) for 14 weeks and treated with Compound 21/3 (0.3 and 1 mg/kg once daily by oral gavage) for three weeks, […]

HFD-fed (DIO) mice = experiment: Intestinal lipid absorption (3H-triolein tracer) in HFD-fed mice; type: in vivo; details: 5 mg/kg oral gavage
From the text: as §1
In addition to the effects of Compound 21/3 on hepatic DNL, the observed reductions in plasma TG in these models may be mediated by reduced intestinal TG absorption, as well as increased clearance of TG-containing lipoproteins from the circulation. […] Further, LXR inhibition with Compound pre-6/3 reduced intestinal lipid absorption as measured by reduced uptake of ^3H-labelled triolein tracer in HFD-fed mice (FIG. 4E). Additionally, Compound 21/3 reduced hepatic expression and plasma levels of ANGPTL3, an inhibitor of LPL, the predominant enzyme involved in the clearance of TG-rich lipoproteins from the circulation (FIG. 4F). Loss-of-function variants in ANGPTL3 are associated with reduced serum lipids and a lower risk of CAD (Dewey, Gusarova et al. 2017). […]

Row | Compound | EC50 [1] | EC50 (LXRβ) | liver exposures compared with Compound pre-6/3 [2] | plasma exposures compared with Compound pre-6/3 [2] | hepatic expression and plasma levels of ANGPTL3 (HFD-fed ZDF rats; 15 mg/kg once daily oral) | immunostaining of pancreatic sections for insulin relative to vehicle (HFD-fed ZDF rats; 15 mg/kg once daily oral, 5 weeks) | glucose tolerance (oral glucose tolerance test) (HFD-fed ZDF rats; 15 mg/kg once daily oral, after 4 weeks of dosing) | liver expression of DNL genes (Srebp1c, Fasn, Acaca, Scd1) (HFD-fed ZDF rats; 0.1 and 1 mg/kg once daily oral) | reduction of plasma TG compared with vehicle (HFD-fed ZDF rats; highest dose 1 mg/kg, p≤0.05) | maximal reduction of liver TG versus vehicle (HFD-fed ZDF rats; p≤0.01) | reduction of plasma total cholesterol (TC) at end of treatment compared with vehicle (HFD-fed ZDF rats; p≤0.05) | hepatic expression of Angptl3, Angptl4, Angptl8, ApoC1, ApoC2, ApoC3 (HFD-fed ZDF rats; 5 mg/kg once daily oral) | intestinal lipid absorption (uptake of 3H-labelled triolein tracer) (HFD-fed (DIO) mice)
1 | N#Cc1cccc(C#N)c1-c1c(-c2cccc(-c3ccc(C(=O)NCC(=O)O)cc3Cl)c2)n(S(=O)(=O)c2ccc(C(F)F)cc2)c2ccc(F)cc12 [Compound 21/3] | 289 ± 34 nM | 11 ± 19 nM | higher and sustained liver exposures | lower plasma exposures | reduced | more prominent staining for insulin | significantly improved | dose-dependently reduced | 96% | 49% | 67% |  | 
2 | N#Cc1cccc(C#N)c1-c1c(-c2cccc(-c3ccc(C(=O)O)cc3Cl)c2)n(S(=O)(=O)c2ccc(C(F)F)cc2)c2ccc(F)cc12 [pre-6/3] |  | 0.4 ± 0.2 nM |  |  |  |  |  |  |  |  |  | suppressed | reduced
